We go through 18 compounds from paper PMC6010112, “Resolution of co-eluting isomers of anti-inflammatory drugs conjugated to carbonic anhydrase inhibitors from plasma in liquid chromatography by energy-resolved tandem mass spectrometry” (Journal of Enzyme Inhibition and Medicinal Chemistry, 2018).

The nature of data set [1]: Chemical stability in phosphate buffer solution (spontaneous hydrolysis), LC-MS/MS. Format: physicochemical. The settings on record: phosphate buffer solution (PBS), 1 µM analyte, 37 °C, incubation 0-120 min, read-out: T 1/2 PBS. The protocol:
(§1) The sample was prepared adding 10 µL of spiked solution to 100 µL of tested matrix (PBS or human plasma or rat plasma) in microcentrifuge tubes. The obtained solutions correspond to 1 µM of analyte.
(§2) Each set of samples was incubated in triplicate at four different times, 0, 30, 60, and 120 min at 37 °C. Therefore, the matrix stability profile of each analyte was represented by a batch of 12 samples (4 incubation times ×3 replicates). After the incubation, the samples were added with 300 µL of ISTD solution and centrifuged (room temperature for 5 min at 800 g). The supernatants were transferred in autosampler vials and dried under a gentle stream of nitrogen.
(§3) The dried samples were dissolved in 1.0 mL of 10 mM of formic acid in mQ water:acetonitrile 80:20 solution[28].
(§4) An investigation on the chemical stability of compounds under study in PBS, human and rat plasma was performed for evaluating their susceptibility to spontaneous or enzymatic hydrolysis.
(§5) The stability profiles were obtained by monitoring the variation of analyte concentration at different incubation times in PBS or human or rat plasma samples. Generally, when the substrate concentration was smaller than the Michaelis–Menten constant (KM), the enzymatic degradation rate is described to a first-order kinetics. Therefore, plotting the natural logarithm of the quantitative data versus the incubation time, a linear function can be used and its slope represents the degradation rate constant (k).
(§6) All degradation plots of references and studied compounds were reported in the Supplemental material (SF11–SF26). The half-life of each tested compound was calculated as follows: (4) […]

A short description of data set [2]: Stability in human plasma (enzymatic hydrolysis), LC-MS/MS. Format: in vitro ADME. To be noted: 1 µM analyte, 37 °C, incubation 0-120 min; for half-life at 1 µM: male, read-out: T 1/2 Human plasma. As to the method:
(§7) PBS was prepared by adding 8.01 g L^−1 of NaCl, 0.2 g L^−1 of KCl, 1.78 g L^−1 of Na2HPO4·2H2O, and 0.27 g L^−1 of KH2PO4. Human plasma was collected from healthy volunteer and the rat plasma was collected from Sprague-Dawley male rats; each plasma batch was kept at −80 °C until use.
as §1
Therefore, the matrix stability profile of each analyte was represented by a batch of 12 samples (4 incubation times ×3 replicates). After the incubation, the samples were added with 300 µL of ISTD solution and centrifuged (room temperature for 5 min at 800 g). The supernatants were transferred in autosampler vials and dried under a gentle stream of nitrogen.
as §3, §4, §5

The nature of data set [3]: Stability in rat plasma (enzymatic hydrolysis), LC-MS/MS. Format: in vitro ADME, Sprague-Dawley male rats. To be noted: male, Sprague-Dawley, 1 µM analyte, 37 °C, incubation 0-120 min, read-out: T 1/2 Rat plasma. The protocol: as §7, §1, §2, §3, §4
In order to establish the hydrolytic activity of the employed plasma batches, two reference compounds were tested, following the procedure reported in the section ‘Validation of LC-MS/MS methods’: KEE (half-life <2 h) and enalapril (half-life <0.5 h) to verify the human and rat plasma activity, respectively[32]^,[33].
as §5, §6

Details of data set [4]: method as in PMID 28238510, PMID 28113128. To be noted: cited from earlier work.
Details of data set [5]: method as in PMID 28238510, PMID 28113128. The settings on record: cited from earlier work. This is another data set of the same source.

For `COc1ccc2c(c1)c(CC(=O)NCCOc1ccc3oc(=O)ccc3c1)c(C)n2C(=O)c1ccc(Cl)cc1` [Compound 1A], the half-life at 1 µM in data set [1], in data set [2] and in data set [3] was greater than 4 h each time.
For `CC(C(=O)NCCOc1ccc2oc(=O)ccc2c1)c1ccc(-c2ccccc2)c(F)c1` (stereo not shown) [Compound 6A], the half-life at 1 µM in data set [1], in data set [2] and in data set [3] was greater than 4 h throughout.
With `CCOC(=O)[C@H](CCc1ccccc1)N[C@@H](C)C(=O)N1CCC[C@H]1C(=O)O` [Enalapril, enalapril, reference compound], the half-life at 1 µM in data set [3] is 0.367 h. For the same compound, the “half-life (reference compound to verify rat plasma activity)” value in data set [4] was less than 0.5 h.
For the compound `O=C(c1ccccc1)c1ccc2n1CCC2C(=O)NCCOc1ccc2ccc(=O)oc2c1` (stereo not shown) [Compound 7B], the half-life at 1 µM in data set [1], in data set [2] and in data set [3] was greater than 4 h in each case.
For the compound `O=C(Cc1ccccc1Nc1c(Cl)cccc1Cl)NCCOc1ccc2ccc(=O)oc2c1` [Compound 5B], the half-life at 1 µM in data set [1], in data set [2] and in data set [3] was greater than 4 h throughout.
Regarding `COc1ccc2cc(C(C)C(=O)NCCOc3ccc4oc(=O)ccc4c3)ccc2c1` (stereo not shown) [Compound 8A], the half-life at 1 µM in data set [1], in data set [2] and in data set [3] was greater than 4 h in each case.
With `CCOC(=O)C(C)c1cccc(C(=O)c2ccccc2)c1` (stereo not shown) [KEE, Ketoprofen ethyl ester, reference compound], the “T 1/2 Human plasma” value in data set [2] is 1.58 h. In addition, in data set [5], the “half-life (reference compound to verify human plasma activity)” value is reported as less than 2 h.
`CC1=C(CC(=O)NCCOc2ccc3ccc(=O)oc3c2)c2cc(F)ccc2/C1=C\c1ccc([S+](C)[O-])cc1` (stereo not shown) [Compound 2B]: the half-life at 1 µM in data set [1], in data set [2] and in data set [3] was greater than 4 h each time.
Consider `O=C(Cc1ccccc1Nc1c(Cl)cccc1Cl)NCCOc1ccc2oc(=O)ccc2c1` [Compound 5A], for which the half-life at 1 µM in data set [1], in data set [2] and in data set [3] was greater than 4 h throughout.
For the compound `CC(C(=O)NCCOc1ccc2oc(=O)ccc2c1)c1cccc(C(=O)c2ccccc2)c1` (stereo not shown) [Compound 3A], the half-life at 1 µM in data set [1], in data set [2] and in data set [3] was greater than 4 h each time.
As for `CC(C(=O)NCCOc1ccc2ccc(=O)oc2c1)c1cccc(C(=O)c2ccccc2)c1` (stereo not shown) [Compound 3B], the half-life at 1 µM in data set [1], in data set [2] and in data set [3] was greater than 4 h throughout.
`COc1ccc2cc(C(C)C(=O)NCCOc3ccc4ccc(=O)oc4c3)ccc2c1` (stereo not shown) [Compound 8B]: the half-life at 1 µM in data set [1], in data set [2] and in data set [3] was greater than 4 h each time.
Take `O=C(c1ccccc1)c1ccc2n1CCC2C(=O)NCCOc1ccc2oc(=O)ccc2c1` (stereo not shown) [Compound 7A]: the half-life at 1 µM in data set [1], in data set [2] and in data set [3] was greater than 4 h throughout.
`CC(C(=O)NCCOc1ccc2ccc(=O)oc2c1)c1ccc(-c2ccccc2)c(F)c1` (stereo not shown) [Compound 6B]: the half-life at 1 µM in data set [1], in data set [2] and in data set [3] was greater than 4 h each time.
In the case of `CC(C)Cc1ccc(C(C)C(=O)NCCOc2ccc3oc(=O)ccc3c2)cc1` (stereo not shown) [Compound 4A], the half-life at 1 µM in data set [1], in data set [2] and in data set [3] was greater than 4 h throughout.
For `COc1ccc2c(c1)c(CC(=O)NCCOc1ccc3ccc(=O)oc3c1)c(C)n2C(=O)c1ccc(Cl)cc1` [Compound 1B], the half-life at 1 µM in data set [1], in data set [2] and in data set [3] was greater than 4 h each time.
Regarding `CC1=C(CC(=O)NCCOc2ccc3oc(=O)ccc3c2)c2cc(F)ccc2/C1=C\c1ccc([S+](C)[O-])cc1` (stereo not shown) [Compound 2A], the half-life at 1 µM in data set [1], in data set [2] and in data set [3] was greater than 4 h each time.
On to `CC(C)Cc1ccc(C(C)C(=O)NCCOc2ccc3ccc(=O)oc3c2)cc1` (stereo not shown) [Compound 4B], for which the half-life at 1 µM in data set [1], in data set [2] and in data set [3] was greater than 4 h each time.
